Data set [1] has as its system guinea pig platelet aggregation. Put plainly: In vitro neutralisation of inhibition of guinea pig platelet aggregation by avidin. The data set is classed as cell-based. Conditions: avidin added to ADP-induced guinea pig platelet aggregation assay. Here is the method: 2.1 In Vitro Neutralization of the Antithrombotic Activity A. In Vitro Neutralisation of Inhibition of Platelet Aggregation (Pre-Incubation of Compound with Avidin)
As performed in above described protocol for ADP-induced platelet aggregation. […] Before inducing the guinea pig platelet aggregation by adding ADP, compound and avidin (from egg white, Sigma) in different concentrations were pre-incubated for 2 minutes at room temperature (FIGS. 1 and 2).
B. In Vitro Neutralisation of Inhibition of Platelet Aggregation
(After Delayed Addition of Avidin)
(§1) As performed in above described protocol for ADP-induced platelet aggregation. […] After 7 minutes the detection of platelet aggregation was interrupted and avidin (from egg white, Sigma) in different concentrations was added at t=9 min. Within 1 minute the detection of the platelet aggregation was resumed (FIGS. 3 and 4).

Data set [2] deals with collagen induced platelet aggregation. The data set can be described thus: In vivo neutralization: collagen induced platelet aggregation (thrombocytopenia) model. Conditions: guinea pig; for neutralization of the platelet inhibitory activity by avidin: avidin 10 mg/kg just prior to collagen infusion. Here is the method: 4. In Vivo Neutralization of the Antithrombotic Activity
An intravascular infusion of a collagen suspension induces platelet aggregation and causes transient thrombocytopenia in rats. This test is used to evaluate the influence of a test compound on the severity of thrombocytopenia induced by collagen in rats.
In the first experiment male guinea pigs were s.c. treated with compound 10 at a dose of 75 nmol/kg or vehicle at 4 hours before collagen infusion. In a second experiment compounds 12 and 17 were s.c. administered at a dose of 100 nmol/kg at the same time-point. Male guinea pigs were anaesthetized by i.m. administration of Ketamine+Sedamun (90+10 mg/kg, respectively). After 15 minutes one of the common carotid arteries was dissected free and cannulated with a PE 50 cannula (Clay Adams). Two blood samples of 0.5 mL were collected in plastic vials containing 25 μL 0.20 M Na2EDTA solution. The cannula was then connected to a syringe containing 0.25 mg/mL collagen suspension (Hormon Chemie, Munich, West Germany, diluted with isotonic buffer of pH 2.8). This suspension was administered via an infusion of 225 μL during 30 seconds. Then the syringe was disconnected and 2 blood samples of 0.5 mL were taken at 85 and 95 seconds after the start of the collagen infusion. Then the animals were killed with euthasate after which the number of platelets per sample were counted with a Sysmex blood cell counter model KX-21. In case avidin was used, 10 mg/kg of avidin was i.v. administered at t=4 h after s.c. administration of compound 10, 12 or 17 after which collagen was infused within 5 minutes.
After counting the number of platelets in the collected blood samples the decreased number of platelets is calculated by dividing the mean platelet number of the blood samples obtained at t=85 and 95 seconds by the mean value of the blood samples obtained at t=0. The test was carried out with n=4.

Data set [3] can be described thus: Bleeding in guinea pigs and its stop by avidin. Particulars: guinea pigs. The data set is classed as in vivo, guinea pig.
For data set [4], the system named is human platelet aggregation. The data set can be described thus: In vitro neutralisation of inhibition of human platelet aggregation by avidin. The data set is classed as cell-based. Conditions: avidin added 9 minutes after ADP-induced aggregation, human platelets. Here is the method:
as §1
In FIG. 5, the effect of avidin on the inhibition of human platelet aggregation by compound 17 is shown (addition of avidin 9 minutes after ADP-induced platelet aggregation).

Where [5] appears, read: 100 nmol/kg s.c., + avidin 10 mg/kg i.v. at t = 4 h.
[6] abbreviates: 100 nmol/kg s.c., without avidin.
The mark [7] stands for this setting: 75 nmol/kg s.c., + avidin 10 mg/kg i.v. at t = 4 h.
[8] abbreviates: 75 nmol/kg s.c., without avidin.

The structures appear in SMILES notation. Structures can show the parent of a compound that is named as a salt.

By % inhibition is commonly meant the relative decrease from the control value, in per cent. In the case of `CO[C@H]1O[C@H](COS(=O)(=O)O)[C@@H](O[C@@H]2O[C@@H](C(=O)O)[C@@H](O[C@H]3O[C@H](COS(=O)(=O)O)[C@@H](O[C@@H]4O[C@H](C(=O)O)[C@@H](O[C@H]5O[C@H](COS(=O)(=O)O)[C@@H](OCCOCCOCCOCCNC(=O)COCCOCCOCCOCCNC(=O)c6cccc(S(=O)(=O)N[C@@H](Cc7ccc(OCCCCC8CCNCC8)cc7)C(=O)O)c6)[C@H](OC)[C@H]5OC)[C@H](OC)[C@H]4OC)[C@H](OS(=O)(=O)O)[C@H]3OS(=O)(=O)O)[C@H](OC)[C@H]2OC)[C@H](OS(=O)(=O)O)[C@H]1OS(=O)(=O)O` [Compound 12, sodium salt, reference compound], the “effect of avidin on inhibition of guinea pig platelet aggregation (neutralisation of anti-GPIIbIIIa activity)” value in data set [1] is on record as “cannot be restored”. Further, the “% inhibition” value in data set [2] (100 nmol/kg s.c., 4 hours after administration, without avidin, sodium salt) is on record as 70 ± 4%. For the same molecule, in data set [2] (setting [5]), the “% inhibition” value was found to be 74 ± 3%, the “% remaining platelets” value stood at 86.5 ± 1.7%, the “No. of platelets t = 0” value is recorded as 379 ± 6 and the “No. of platelets t = 90 sec” value is 329 ± 11. For the same molecule, in data set [2] (setting [6]), the “% remaining platelets” value came to 84.5 ± 2.2%, the “No. of platelets t = 0” value is 426 ± 6 and the “No. of platelets t = 90 sec” value amounted to 360 ± 7. The “neutralization of the platelet inhibitory activity by avidin” value in data set [2] is on record as “not”.
`CO[C@H]1O[C@H](COS(=O)(=O)O)[C@@H](O[C@@H]2O[C@@H](C(=O)O)[C@@H](O[C@H]3O[C@H](COS(=O)(=O)O)[C@@H](O[C@@H]4O[C@H](C(=O)O)[C@@H](O[C@H]5O[C@H](COS(=O)(=O)O)[C@@H](OCCOCCOCCOCCNC(=O)[C@H](CCCCNC(=O)CCCC[C@@H]6SC[C@@H]7NC(=O)N[C@@H]76)NC(=O)COCCOCCOCCOCCNC(=O)c6cccc(S(=O)(=O)N[C@@H](Cc7ccc(OCCCCC8CCNCC8)cc7)C(=O)O)c6)[C@H](OC)[C@H]5OC)[C@H](OC)[C@H]4OC)[C@H](OS(=O)(=O)O)[C@H]3OS(=O)(=O)O)[C@H](OC)[C@H]2OC)[C@H](OS(=O)(=O)O)[C@H]1OS(=O)(=O)O` [Compound 10, sodium salt]: the “effect of avidin on inhibition of guinea pig platelet aggregation (neutralisation of anti-GPIIbIIIa activity)” value in data set [1] was “immediate restoration of platelet aggregation”. The “No. of platelets t = 0” value in data set [2] (75 nmol/kg s.c., 4 h before collagen, without avidin) came to 386 ± 31; in data set [2] (setting [7]), 384 ± 20. For the same molecule, the “% inhibition” value in data set [2] (75 nmol/kg s.c., 4 hours after administration, without avidin, sodium salt) is on record as 76 ± 4%; in data set [2] (setting [7]), 2 ± 13%. In addition, the figures for the “% remaining platelets” value in data set [2] (setting [7]) and in data set [2] (setting [8]) were 40.4 ± 7.8% and 85.3 ± 2.5%, respectively. The “No. of platelets t = 90 sec” value is on record as 152 ± 26 in data set [2] (setting [7]) and 328 ± 18 in data set [2] (setting [8]). Moreover, the “neutralization of the platelet inhibitory activity by avidin” value in data set [2] is “immediate and quantitative neutralization”.
As to `CO[C@H]1O[C@H](COS(=O)(=O)O)[C@@H](O[C@@H]2O[C@@H](C(=O)O)[C@@H](O[C@H]3O[C@H](COS(=O)(=O)O)[C@@H](O[C@@H]4O[C@H](C(=O)O)[C@@H](O[C@H]5O[C@H](COS(=O)(=O)O)[C@@H](OCCOCCOCCOCCNC(=O)[C@H](CCCCNC(=O)C[C@H](NC(=O)CCCC[C@@H]6SC[C@@H]7NC(=O)N[C@@H]76)C(=O)O)NC(=O)COCCOCCOCCOCCNC(=O)c6cccc(S(=O)(=O)N[C@@H](Cc7ccc(OCCCCC8CCNCC8)cc7)C(=O)O)c6)[C@H](OC)[C@H]5OC)[C@H](OC)[C@H]4OC)[C@H](OS(=O)(=O)O)[C@H]3OS(=O)(=O)O)[C@H](OC)[C@H]2OC)[C@H](OS(=O)(=O)O)[C@H]1OS(=O)(=O)O` [Compound 17, sodium salt], in data set [2] (setting [5]), the “% inhibition” value is recorded as −5 ± 15%, the “% remaining platelets” value is reported as 46.5 ± 7.8%, the “No. of platelets t = 0” value was 367 ± 16 and the “No. of platelets t = 90 sec” value is reported as 181 ± 12. In data set [2] (setting [6]), the “% remaining platelets” value worked out at 82.5 ± 2.0%, the “No. of platelets t = 0” value is recorded as 424 ± 11 and the “No. of platelets t = 90 sec” value is reported as 348 ± 7. Besides, the “neutralization of the platelet inhibitory activity by avidin” value in data set [2] was “immediate and quantitative neutralization”. Further, in data set [3], the “bleeding induced after administration” value is “dose-dependent bleeding”. Moreover, in data set [3] (avidin i.v. 10 mg/kg), the “effect of avidin on induced bleeding” value is listed as “stopped immediately”. In data set [4], the “effect of avidin on inhibition of human platelet aggregation” value was “full restoration of human platelet aggregation”.
